# Experimental data published in patent US20230084144A1, “THERAPEUTIC COMBINATIONS OF DRUGS AND METHODS OF USING THEM” (ConSynance Therapeutics, Inc., priority 2020, published 2023).
# Read-outs that look alike come from different tables or passages of the source.
# Legend:
# [1] = molecular target: T1, Transporter, Dopamine (DAT) (Homo sapiens, UniProt Q01959); assay: Radioligand binding, Transporter, Dopamine (DAT) (Eurofin Discovery 220320); settings: for DAT, %inhibition 10 nM: 10 nM compound; for inhibition at 0.1 µM / DAT, %inhibition 100 nM: 100 nM compound
# T1 construct: host or cells: CHO-S cells
# T1 sequence (Q01959 whole entry): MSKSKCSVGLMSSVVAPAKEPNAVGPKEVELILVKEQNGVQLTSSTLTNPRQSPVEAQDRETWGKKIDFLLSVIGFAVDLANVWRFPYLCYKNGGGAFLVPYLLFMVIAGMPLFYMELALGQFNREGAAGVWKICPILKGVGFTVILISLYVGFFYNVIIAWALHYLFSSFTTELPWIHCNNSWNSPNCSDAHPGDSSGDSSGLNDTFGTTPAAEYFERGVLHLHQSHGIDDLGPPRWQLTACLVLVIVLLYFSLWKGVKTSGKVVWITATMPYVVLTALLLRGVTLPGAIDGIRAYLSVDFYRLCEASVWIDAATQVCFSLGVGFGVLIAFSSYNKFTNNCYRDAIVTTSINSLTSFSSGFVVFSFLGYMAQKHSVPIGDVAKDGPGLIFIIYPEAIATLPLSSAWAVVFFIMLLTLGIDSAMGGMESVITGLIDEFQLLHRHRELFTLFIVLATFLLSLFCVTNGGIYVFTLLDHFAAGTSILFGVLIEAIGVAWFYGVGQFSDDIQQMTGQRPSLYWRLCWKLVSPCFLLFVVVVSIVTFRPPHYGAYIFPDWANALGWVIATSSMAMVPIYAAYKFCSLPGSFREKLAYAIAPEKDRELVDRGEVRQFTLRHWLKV
# PWS patients = settings: standard mg/day dosing, cited from earlier work
# DAT = molecular target: T2, DAT (Homo sapiens, UniProt Q01959); settings: cited from earlier work
# T2 construct: from tissue; host or cells: striatum of healthy male volunteers, in vivo PET
# T2 sequence (Q01959 whole entry): as above
# [2] = molecular target: T3, Transporter, Norepinephrine (NET) (Homo sapiens, UniProt P23975); assay: Radioligand binding, Transporter, Norepinephrine (NET) (Eurofin Discovery 204410)
# T3 construct: host or cells: MDCK cells
# T3 sequence (P23975 whole entry): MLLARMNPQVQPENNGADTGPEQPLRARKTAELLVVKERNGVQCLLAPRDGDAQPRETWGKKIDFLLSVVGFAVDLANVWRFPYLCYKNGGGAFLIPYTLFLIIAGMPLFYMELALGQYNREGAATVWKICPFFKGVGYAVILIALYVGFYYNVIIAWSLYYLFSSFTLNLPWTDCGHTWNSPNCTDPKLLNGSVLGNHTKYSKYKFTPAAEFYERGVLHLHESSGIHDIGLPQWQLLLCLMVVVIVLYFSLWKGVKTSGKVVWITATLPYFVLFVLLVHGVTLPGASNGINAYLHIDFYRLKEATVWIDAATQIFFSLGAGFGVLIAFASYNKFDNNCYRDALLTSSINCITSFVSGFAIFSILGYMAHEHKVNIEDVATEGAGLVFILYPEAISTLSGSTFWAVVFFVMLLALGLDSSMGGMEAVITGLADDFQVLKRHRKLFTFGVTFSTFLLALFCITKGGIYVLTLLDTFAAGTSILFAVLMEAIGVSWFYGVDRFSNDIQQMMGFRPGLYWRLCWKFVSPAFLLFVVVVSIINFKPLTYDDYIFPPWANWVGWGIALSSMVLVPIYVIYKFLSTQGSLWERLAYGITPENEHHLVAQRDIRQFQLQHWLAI
# NET = NET (Homo sapiens, UniProt P23975); settings: at efficacious doses; cited from earlier work
# Sequence of NET (P23975 whole entry): as above
# MCHR1 [3] = molecular target: T4, MCHR1 (Homo sapiens, UniProt Q99705); assay: MCHR1 pharmacology of the N-acetyl metabolite
# Source text: By substituting the hydrogens with deuterium on the carbon(s) adjacent to the nitrogen which is acetylated (see for example, Examples 5 to 7), acetylation process can be slowed down to reduce the formation of this metabolite.
# Target sequence in this assay (Q99705 whole entry, species assumed): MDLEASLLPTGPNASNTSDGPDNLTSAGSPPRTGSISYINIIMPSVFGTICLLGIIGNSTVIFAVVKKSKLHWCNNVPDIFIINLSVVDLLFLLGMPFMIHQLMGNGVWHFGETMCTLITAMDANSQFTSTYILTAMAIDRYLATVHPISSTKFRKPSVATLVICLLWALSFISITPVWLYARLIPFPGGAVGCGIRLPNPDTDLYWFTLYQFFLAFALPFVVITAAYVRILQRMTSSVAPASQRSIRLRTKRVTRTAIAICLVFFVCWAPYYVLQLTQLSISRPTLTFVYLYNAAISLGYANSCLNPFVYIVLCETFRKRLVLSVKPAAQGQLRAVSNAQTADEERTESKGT
# MCHR1 [4] = molecular target: T4, MCHR1; set-up: host or cells: CHO-K1 cells; settings: radioligand, Historical Values; cited from earlier work
# Target sequence in this assay (Q99705 whole entry): as the sequence (Q99705 whole entry, species assumed) above
# [5] = molecular target: T1, Transporter, Dopamine (DAT); settings: radioligand, Historical Values; cited from earlier work
# [6] = molecular target: T3, Transporter, Norepinephrine (NET); settings: radioligand, Historical Values; cited from earlier work
molecule,measurement,setting,value
"[2H]C1([2H])NCC(c2ccc(Cl)c(Cl)c2)c2ccc(-c3ccc4ncnn4c3)cc21 (single isomer, unassigned) [Compound 12A, 7-([1,2,4]triazolo[1,5-a]pyridin-6-yl)-4-(3,4-dichlorophenyl)-1,2,3,4-tetrahydroisoquinoline-1,1-d2]","DAT, %inhibition 10 nM",[1],53%
same,inhibition at 0.1 µM,[1],92%
"[2H]C1([2H])NC([2H])([2H])C([2H])(c2ccc(Cl)c(Cl)c2)c2ccc(-c3ccc4ncnn4c3)cc21 (single isomer, unassigned) [Compound 8A, 7-([1,2,4]triazolo[1,5-a]pyridin-6-yl)-4-(3,4-dichlorophenyl)-1,2,3,4-tetrahydroisoquinoline-1,1,3,3,4-d5]","DAT, %inhibition 10 nM",[1],44%
CCOC[C@@H]1[C@@H](c2ccc(Cl)c(Cl)c2)C[C@@H]2CC[C@H]1N2C [tesofensine],hyperphagia,PWS patients; PWS patients with the appropriate plasma drug level,controlled completely
same,patients with plasma drug levels exceeding the safety levels who discontinued due to adverse events,PWS patients; PWS patients,⅔
same,efficacy,PWS patients; lowering the dosing for all patients,no efficacy
same,DAT occupancy,DAT; suggested as the optimal weight loss doses,50%-70%
"[2H]C1([2H])NC([2H])([2H])C([2H])(c2ccc(Cl)c(Cl)c2)c2ccc(-c3ccc4ncnn4c3)cc21 (single isomer, unassigned) [Compound 8B, 7-([1,2,4]triazolo[1,5-a]pyridin-6-yl)-4-(3,4-dichlorophenyl)-1,2,3,4-tetrahydroisoquinoline-1,1,3,3,4-d5]","DAT, %inhibition 10 nM",[1],4%
same,"DAT, %inhibition 100 nM",[1],75%
same,"NET, %inhibition 10 nM",[2]; 10 nM compound,37%
same,"NET, %inhibition 100 nM",[2]; 100 nM compound,71%
COc1ccc(C(CN(C)C)C2(O)CCCCC2)cc1 (centres unmarked) [Venlafaxine],Highest Occupancy NET,NET,61% (Venlafaxine)
same,Lowest Occupancy NET,NET,8% (Venlafaxine)
same,NET occupancies,NET,8-61%
COC(=O)C(c1ccccc1)C1CCCCN1 (centres unmarked) [Methylphenidate],Highest Occupancy DAT,DAT; at efficacious doses,74% (Methylphenidate)
same,DAT occupancy,DAT; at various approved doses,40-74%
CC(NC(C)(C)C)C(=O)c1cccc(Cl)c1 (centres unmarked) [Bupropion],Lowest Occupancy DAT,DAT; at efficacious doses,14% (Bupropion)
same,DAT occupancy,DAT; at various approved doses,14-26%
"CC(=O)N1CCc2c(c3ccc(-n4ccc(OCc5ccc(F)cn5)cc4=O)cc3n2C)C1 [1-(2-acetyl-5-methyl-2,3,4,5-tetrahydro-1H-pyrido[4,3-b]indol-7-yl)-4-((5-fluoropyridin-2-yl)methoxy)pyridin-2(1H)-one]",contribution to MCHR1 antagonism,MCHR1 [3],does not contribute to the pharmacology of MCHR1 antagonism
[^125I] Tyr-S36057,Kd,MCHR1 [4],0.1 nM
"[2H]C1([2H])NCc2cc(-c3ccc4ncnn4c3)ccc2C1([2H])c1ccc(Cl)c(Cl)c1 (single isomer, unassigned) [Compound 16B, 7-([1,2,4]triazolo[1,5-a]pyridin-6-yl)-4-(3,4-dichlorophenyl)-1,2,3,4-tetrahydroisoquinoline-3,3,4-d3]","DAT, %inhibition 10 nM",[1],-2%
COC(=O)[C@H]1[C@@H](c2ccc(I)cc2)C[C@@H]2CC[C@H]1N2C [[^125I] RTI-55],Kd,[5],0.58 nM
same,Kd,[6],24 nM
"[2H]C1([2H])NCC(c2ccc(Cl)c(Cl)c2)c2ccc(-c3ccc4ncnn4c3)cc21 (single isomer, unassigned) [Compound 12B, 7-([1,2,4]triazolo[1,5-a]pyridin-6-yl)-4-(3,4-dichlorophenyl)-1,2,3,4-tetrahydroisoquinoline-1,1-d2]","DAT, %inhibition 10 nM",[1],0%
same,"DAT, %inhibition 100 nM",[1],74%
same,"NET, %inhibition 10 nM",[2]; 10 nM compound,44%
same,"NET, %inhibition 100 nM",[2]; 100 nM compound,74%
"[2H]C1([2H])NCc2cc(-c3ccc4ncnn4c3)ccc2C1([2H])c1ccc(Cl)c(Cl)c1 (single isomer, unassigned) [Compound 16A, 7-([1,2,4]triazolo[1,5-a]pyridin-6-yl)-4-(3,4-dichlorophenyl)-1,2,3,4-tetrahydroisoquinoline-3,3,4-d3]","DAT, %inhibition 10 nM",[1],47%
same,inhibition at 0.1 µM,[1],91%
same,inhibition at 0.01 µM,[2]; 10 nM compound,38%
same,inhibition at 0.1 µM,[2]; 100 nM compound,83%
NC(=O)C[S+]([O-])C(c1ccccc1)c1ccccc1 (centres unmarked) [modafinil],DAT occupancy,DAT; at various approved doses,51-57%
